Conditions: Coaxial cylinder method

CCCCC [pentane]
Conditions | thermal conductivity [W/m/K]
465.4 K, 9497 kPa, Liquid | 0.07785
465.4 K, 9610 kPa, Liquid | 0.07785
465.4 K, 9891 kPa, Liquid | 0.07814
466.27 K, 100 kPa, Gas | 0.03453
466.28 K, 100 kPa, Gas | 0.03449
466.29 K, 100 kPa, Gas | 0.03442
466.3 K, 100 kPa, Gas | 0.03439
466.7 K, 100 kPa, Gas | 0.03462
467.36 K, 11000 kPa, Liquid | 0.08067
467.36 K, 11500 kPa, Liquid | 0.08129
467.36 K, 12000 kPa, Liquid | 0.08175
467.36 K, 13000 kPa, Liquid | 0.08285
467.36 K, 13800 kPa, Liquid | 0.08362
467.36 K, 15200 kPa, Liquid | 0.08486
467.36 K, 16000 kPa, Liquid | 0.08553
467.36 K, 16500 kPa, Liquid | 0.08593
467.36 K, 17000 kPa, Liquid | 0.08638
467.36 K, 17500 kPa, Liquid | 0.08673
467.36 K, 18000 kPa, Liquid | 0.08718
467.36 K, 18500 kPa, Liquid | 0.0876
467.36 K, 19000 kPa, Liquid | 0.08803
467.36 K, 19500 kPa, Liquid | 0.08843
467.36 K, 20000 kPa, Liquid | 0.08879
467.36 K, 20500 kPa, Liquid | 0.08919
467.36 K, 21000 kPa, Liquid | 0.08956
467.36 K, 21500 kPa, Liquid | 0.08989
467.36 K, 22000 kPa, Liquid | 0.09031
467.36 K, 22500 kPa, Liquid | 0.09068
467.36 K, 23000 kPa, Liquid | 0.0911
467.36 K, 23500 kPa, Liquid | 0.09141
467.36 K, 24000 kPa, Liquid | 0.0918
467.36 K, 24500 kPa, Liquid | 0.09219
467.36 K, 25000 kPa, Liquid | 0.09258
467.36 K, 25500 kPa, Liquid | 0.09286
467.36 K, 26000 kPa, Liquid | 0.09318
467.36 K, 26500 kPa, Liquid | 0.09358
467.36 K, 27000 kPa, Liquid | 0.0939
467.36 K, 27500 kPa, Liquid | 0.09419
467.36 K, 28000 kPa, Liquid | 0.09456
467.36 K, 28500 kPa, Liquid | 0.09489
467.36 K, 29000 kPa, Liquid | 0.09522
467.36 K, 29500 kPa, Liquid | 0.09552
467.36 K, 30000 kPa, Liquid | 0.09583
467.36 K, 30500 kPa, Liquid | 0.09613
467.36 K, 31000 kPa, Liquid | 0.09634
467.36 K, 31280 kPa, Liquid | 0.09643
467.36 K, 31300 kPa, Liquid | 0.09647
467.36 K, 31340 kPa, Liquid | 0.09656
467.76 K, 100 kPa, Gas | 0.03471
468.02 K, 100 kPa, Gas | 0.03483
468.08 K, 100 kPa, Gas | 0.03457
468.57 K, 100 kPa, Gas | 0.03481
469.93 K, 100 kPa, Gas | 0.03492
470.04 K, 2036 kPa, Gas | 0.03754
470.07 K, 100 kPa, Gas | 0.03498
470.2 K, 100 kPa, Gas | 0.03485
471.68 K, 100 kPa, Gas | 0.03523
472.17 K, 1697 kPa, Gas | 0.03753
472.21 K, 100 kPa, Gas | 0.03519
472.84 K, 100 kPa, Gas | 0.03528
472.97 K, 100 kPa, Gas | 0.03526
473.01 K, 100 kPa, Gas | 0.03533
473.86 K, 100 kPa, Gas | 0.03563
474.81 K, 100 kPa, Gas | 0.03571
475.4 K, 100 kPa, Gas | 0.03567
475.7 K, 10375 kPa, Gas | 0.07726
475.7 K, 17575 kPa, Gas | 0.0849
475.7 K, 19975 kPa, Gas | 0.08712
475.7 K, 24775 kPa, Gas | 0.0897
475.7 K, 29975 kPa, Gas | 0.09365
475.7 K, 40275 kPa, Gas | 0.09992
475.7 K, 48475 kPa, Gas | 0.1033
476.21 K, 100 kPa, Gas | 0.03593
478.08 K, 100 kPa, Gas | 0.03587
478.2 K, 100 kPa, Gas | 0.03595
478.5 K, 2001 kPa, Gas | 0.03835
478.5 K, 10175 kPa, Gas | 0.07793
478.5 K, 19775 kPa, Gas | 0.08695
478.5 K, 20375 kPa, Gas | 0.08696
478.5 K, 30175 kPa, Gas | 0.09387
478.5 K, 32975 kPa, Gas | 0.09616
478.5 K, 40175 kPa, Gas | 0.1002

From the NIST ThermoML archive (doi:10.1016/j.fluid.2017.12.026)
